Test results: US20030153623A1, “Solid preparation containing sparingly soluble NSAIDs” (Yamanouchi Pharmaceutical Co., Ltd., priority 1998, published 2003)

Legend:
Assay type in all cases: physicochemical
[1] = Dissolution test, puddle method, first solution pH 1.2, various chemicals (Test Example 5); settings: raw material of the chemical; dissolved for 5 minutes; first solution (pH 1.2) 500 ml; 50 rpm; a dose of each chemical
Method: Samples 8-1 and 8-9, and raw materials of various chemicals as the control, were examined by the puddle method in an dissolution test according to the Japanese Pharmacopoeia, and the amount of ibuprofen (μg/ml) dissolved for 5 minutes in the test was determined. The test solution used was the first solution (pH 1.2) in a disintegration test in the Japanese Pharmacopoeia, the amount of the dissolution medium was 500 ml, and the number of puddle revolutions was 50 rpm. Each sample contains a dose of each chemical.

[2] = Dissolution test, puddle method, Japanese Pharmacopoeia, water (Test Example 1); settings: ibuprofen dissolved for 5 minutes; water 500 ml; 100 rpm; ibuprofen content 150 mg
Method: Each sample was tested by the puddle method in an dissolution test according to the Japanese Pharmacopoeia, and the amount of ibuprofen (μg/ml) dissolved for 5 minutes in the test was determined. Water was used as the test solution, the amount of the dissolution medium was 500 ml, and the number of puddle revolutions was 100 rpm. The raw ibuprofen material, Samples 5-1 to 5-7, and Sample 6 were examined respectively in the test. The content of ibuprofen in every sample was 150 mg.

[3] = Dissolution test, puddle method, first solution pH 1.2 (Test Example 4)
Method: Samples 7-1 and 7-9, and the raw ibuprofen powder as the control, were examined by the puddle method in an dissolution test according to the Japanese Pharmacopoeia, and the amount of ibuprofen (μg/ml) dissolved for 5 minutes in the test was determined. The test solution used was a first solution (pH 1.2) in a disintegration test in the Japanese Pharmacopoeia, the amount of the dissolutuion medium was 500 ml, and the number of puddle revolutions was 50 rpm. The content of ibuprofen in every sample was 150 mg.

Dissolved amount, Control [1] [µg/mL] | Dissolved amount [2] [µg/mL] | Solubility in first solution (pH 1.2), in words ([3]; first solution (pH 1.2) of the disintegration test) | Dissolved amount ([3]; ibuprofen dissolved for 5 minutes, first solution (pH 1.2) 500 ml, 50 rpm, ibuprofen content 150 mg) [µg/mL] | Structure (SMILES)
11.47 | – | – | – | CC(C(=O)O)c1cccc(Oc2ccccc2)c1 (stereo not shown) [Phenoprofen]
0.09 | – | – | – | COc1ccc2c(c1)c(CC(=O)O)c(C)n2C(=O)c1ccc(Cl)cc1 [Indomethacin]
101.73 | – | – | – | CC(C(=O)O)c1ccc(CC2CCCC2=O)cc1 (stereo not shown) [Loxoprofen]
0.22 | – | – | – | CC(C(=O)O)c1ccc(-c2ccccc2)c(F)c1 (stereo not shown) [Flurbiprofen]

Further lines, the compound ahead of its results:

Structure (SMILES) | Dissolved amount, Control [1] [µg/mL] | Dissolved amount [2] [µg/mL] | Solubility in first solution (pH 1.2), in words ([3]; first solution (pH 1.2) of the disintegration test) | Dissolved amount ([3]; ibuprofen dissolved for 5 minutes, first solution (pH 1.2) 500 ml, 50 rpm, ibuprofen content 150 mg) [µg/mL]
CC(C(=O)O)c1ccc2c(c1)Cc1cccnc1O2 (stereo not shown) [Pranoprofen] | 17.81 | – | – | –
CC(C)Cc1ccc(C(C)C(=O)O)cc1 (stereo not shown) [Ibuprofen, ibuprofen] | 0.00 | 5.7 | not dissolved | 0.00
CC(C(=O)O)c1cccc(C(=O)c2ccccc2)c1 (stereo not shown) [Ketoprofen] | 1.57 | – | – | –
